The text below walks through data of article PMC11784145, “Efficacy and in vitro pharmacological assessment of novel N-hydroxypyridinediones as hepatitis B virus ribonuclease H inhibitors” (Antimicrobial Agents and Chemotherapy, 2024).

For data set [1], the system named is HBV replication (HBV plus-polarity DNA strand). Briefly: HBV replication inhibition, strand preferential qPCR in hepDES19 cells. The data set is classed as cell-based, hepatitis B virus. The following applies: for EC50: 72 h exposure, HBV plus-polarity strand suppression, highest concentration tested 100 µM, mean ± SD, read-out: HepDES19 EC50. Here is the method:
HBV replication inhibition was measured in hepDES19 cells following 72 h compound exposure without compound replenishment. EC50 values were determined by HBV plus-polarity strand suppression using a strand preferential qPCR assay, as described previously ([28]). Three or more replicate values were obtained on different days.
A general note: Real-time PCR tracks product formation cycle by cycle.

Data set [2] in a line: Solubility limit, turbidimetric assay. The class given is physicochemical. The following applies: upper limit 200 µM. As for the experimental part: Solubility limits were determined by a turbidimetric assay, as described ([27]), with the solubility limit being defined as the compound concentration where light scattering began to rise. Two or more replicate assays were performed for each compound at each pH on different days.

Another data set deals with HepDES19 cells. As to conditions: read-out: HepDES19 CC50; 72 h, MTS; highest concentration tested 100 µM; mean ± SD.
A further data set concerns the target T1, CYP2D6 (Homo sapiens, UniProt P10635).
T1 construct: purchased Thermo Fisher Vivid 2D6 EOMCC Blue
Briefly: Cytochrome P450 inhibition, Vivid 2D6 EOMCC Blue kit. The following applies: dose-response 50 µM to 3 nM; mean ± SD. The data set is classed as in vitro ADME. Here is the method:
(§1) Compound inhibition of Cytochrome P (CYP) 3A4, 2C9, and 2D6 was determined using Vivid CYP450 screening kits (Thermo Fisher) according to the manufacturer’s instructions, as described previously ([27]). The kits employed were: Vivid 3A4 DBOMF Green, 2C9 BOMF Green, and 2D6 EOMCC Blue. Reactions were initiated by addition of the fluorophore-conjugated substrates with Vivid NADP^+ and were conducted at 37°C using either a Biotek Synergy HTX multi-mode plate reader with 485/20 nm excitation and 520/20 nm emission filters (green-fluorescent substrate), or a Tecan Spark plate reader with monochromator settings at 415/20 nm excitation and 460/20 nm emission (blue-fluorescent substrate) defined by the Center Wavelength/band-pass values. Substrate cleavage was detected every 60 s.
Compounds were initially screened against each enzyme at 10 µM and maximum rates of fluorescence in RFU were calculated using the Biotek Gen5 v3.11 software. Percent inhibition of experimental compound reactions was normalized to the rate to DMSO vehicle reactions. Positive controls used were: CYP3A4—ketoconazole (Sigma Aldrich), CYP2C9—sulfaphenazole (Cayman Chemical), and CYP2D6—quinidine (Fisher Scientific). Dose-response curves were generated for compounds that inhibited an enzyme by ≥50% using titrated concentrations of compound (50 µM to 3 nM) or 1% DMSO. IC50 values were determined using the four-parameter log[inhibitor] versus response algorithm in GraphPad Prism. Qualitative screens and dose-response curves were each performed in triplicate on different days.

A short description of data set [3]: Parallel artificial membrane permeability assay (PAMPA). The data set is classed as in vitro ADME. Here is the method: Compound Papp values were determined by normalizing the experimental compound absorbance to the compounds’ absorbances at equilibrium, membrane porosity, buffer volume, and time (s). Two or more replicate assays were obtained on separate days for each pH.
In general terms: In PAMPA a lipid-coated filter parts donor from acceptor wells.

A further data set addresses T2, CYP3A4 (Homo sapiens, UniProt P08684).
T2 construct: purchased Thermo Fisher Vivid 3A4 DBOMF Green
Briefly: Cytochrome P450 inhibition, Vivid 3A4 DBOMF Green kit. The class given is in vitro ADME. As to conditions: 10 µM compound. Here is the method:
as §1
Compounds were initially screened against each enzyme at 10 µM and maximum rates of fluorescence in RFU were calculated using the Biotek Gen5 v3.11 software. Percent inhibition of experimental compound reactions was normalized to the rate to DMSO vehicle reactions. Positive controls used were: CYP3A4—ketoconazole (Sigma Aldrich), CYP2C9—sulfaphenazole (Cayman Chemical), and CYP2D6—quinidine (Fisher Scientific). […] IC50 values were determined using the four-parameter log[inhibitor] versus response algorithm in GraphPad Prism. […]

A further data set can be described thus: Microsome stability. The data set is classed as in vitro ADME, human. As to conditions: human, microsomes.
The next data set relates to plasma proteins. Briefly: Plasma protein binding, rapid equilibrium dialysis. The data set is classed as in vitro ADME, bovine. As to conditions: 10 µM compound, DMEM-F12 with 10% FBS (0.25 mg/mL BSA), 4 h, 37°C. Here is the method:
Plasma protein binding was performed using the Pierce rapid equilibrium dialysis device (Thermo Fisher) per the manufacturer’s instructions, as described ([27]). Briefly, the sample wells contained DMEM-F12 supplemented with 10% FBS spiked with 10 µM compound, and the buffer wells contained phosphate-buffered saline (PBS). The plate was incubated for 4 h at 37°C with shaking, after which 50 µL was retrieved from the buffer and sample wells and added to ice-cold acetonitrile and the internal standard described above. Samples were matrix-matched with PBS supplemented with 10% FBS or PBS alone, respectively, and centrifuged at 4,000 × g for 5 min to pellet plasma proteins. The supernatants were analyzed by LCMS/MS and percent compound bound was determined, as described previously ([27]).
Background: Equilibrium dialysis compares concentrations on both sides of a semipermeable membrane.

Where [4] appears, read: pH 5 (fed simulated intestinal fluid).
[5] abbreviates: pH 6.5 (fasted simulated intestinal fluid).

T1 sequence (P10635 whole entry): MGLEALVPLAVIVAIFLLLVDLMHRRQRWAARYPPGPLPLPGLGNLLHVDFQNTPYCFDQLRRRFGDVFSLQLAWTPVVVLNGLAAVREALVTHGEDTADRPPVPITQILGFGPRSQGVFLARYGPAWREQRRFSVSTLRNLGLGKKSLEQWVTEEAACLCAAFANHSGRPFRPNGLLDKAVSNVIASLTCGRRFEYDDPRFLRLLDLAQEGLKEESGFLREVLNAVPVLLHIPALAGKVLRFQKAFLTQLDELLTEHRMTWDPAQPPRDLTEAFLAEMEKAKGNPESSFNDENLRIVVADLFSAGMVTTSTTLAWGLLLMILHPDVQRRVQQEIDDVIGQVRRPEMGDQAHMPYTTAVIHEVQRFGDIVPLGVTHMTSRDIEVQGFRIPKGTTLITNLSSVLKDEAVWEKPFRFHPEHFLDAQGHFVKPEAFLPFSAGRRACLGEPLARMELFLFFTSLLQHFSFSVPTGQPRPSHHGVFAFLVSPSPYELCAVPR
T2 sequence (P08684 whole entry): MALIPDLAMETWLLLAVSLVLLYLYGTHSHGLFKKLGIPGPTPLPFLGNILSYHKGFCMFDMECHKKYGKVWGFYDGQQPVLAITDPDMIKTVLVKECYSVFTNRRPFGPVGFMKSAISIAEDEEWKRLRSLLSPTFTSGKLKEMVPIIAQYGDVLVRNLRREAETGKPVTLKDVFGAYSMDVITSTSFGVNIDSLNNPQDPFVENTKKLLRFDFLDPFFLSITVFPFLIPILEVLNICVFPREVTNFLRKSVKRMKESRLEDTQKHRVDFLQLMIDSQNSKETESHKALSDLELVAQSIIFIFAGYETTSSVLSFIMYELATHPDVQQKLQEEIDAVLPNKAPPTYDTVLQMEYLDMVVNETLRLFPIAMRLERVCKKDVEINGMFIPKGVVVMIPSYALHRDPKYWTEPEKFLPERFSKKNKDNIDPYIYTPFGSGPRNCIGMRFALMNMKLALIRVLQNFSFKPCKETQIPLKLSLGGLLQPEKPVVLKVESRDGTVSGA

As to `CC(=NOCc1cccc(Br)c1)c1c(C)cc(=O)n(O)c1O` [Compound 1621], in data set [1], the “HepDES19 SI (CC50/EC50)” value is reported as 192. Further, the EC50 in data set [1] worked out at 0.52 ± 0.33 µM. Moreover, the “Average Sol (solubility limit)” value in data set [2] (setting [4]), in data set [2] (setting [5]) and in data set [2] (pH 7.4 (DMEM-F12 with 10% FBS)) was more than 200 µM each time. The “Sol 1 (solubility limit)” value is listed as more than 200 µM in data set [2] (pH 5, replicate 1); more than 200 µM in data set [2] (pH 6.5, replicate 1); more than 200 µM in data set [2] (pH 7.4, replicate 1). The “Sol 2 (solubility limit)” value in data set [2] (pH 5, replicate 2) was more than 200 µM; in data set [2] (pH 6.5, replicate 2) it was more than 200 µM; in data set [2] (pH 7.4, replicate 2), more than 200 µM. Also, the CC50 in the data set with HepDES19 cells turned out to be 78.5 ± 32.4 µM. The IC50 at CYP2D6 amounted to 19.5 µM. Also, the “Avg Papp (PAMPA)” value worked out at 26.3 ×10⁻⁶ cm/s in data set [3] (FeSSIF pH 5) and 4.53 ×10⁻⁶ cm/s in data set [3] (pH 7.4). Besides, the “Interpretation (PAMPA Papp)” value in data set [3] (FeSSIF pH 5) and in data set [3] (pH 7.4) was “H (H: Papp > 1*10-6)” in each case. Further, the “Papp 1 (PAMPA)” value in data set [3] (FeSSIF pH 5, replicate 1) was found to be 31.7 ×10⁻⁶ cm/s; in data set [3] (pH 7.4, replicate 1) it was 0.49 ×10⁻⁶ cm/s. In addition, the “Papp 2 (PAMPA)” value in data set [3] (FeSSIF pH 5, replicate 2) turned out to be 20.9 ×10⁻⁶ cm/s; in data set [3] (pH 7.4, replicate 2) it was 4.47 ×10⁻⁶ cm/s. The “Papp 3 (PAMPA)” value in data set [3] (pH 7.4, replicate 3) was determined as 10.6 ×10⁻⁶ cm/s. In addition, the “Papp 4 (PAMPA)” value in data set [3] (pH 7.4, replicate 4) turned out to be 0.488 ×10⁻⁶ cm/s. For the same compound, in data set [3] (pH 7.4, replicate 5), the “Papp 5 (PAMPA)” value stood at 6.7 ×10⁻⁶ cm/s. For the same compound, the “Papp 6 (PAMPA)” value in data set [3] (pH 7.4, replicate 6) stood at 4.44 ×10⁻⁶ cm/s.
Consider `CC(=NOCc1cccc(Cl)c1)c1c(C)cc(=O)n(O)c1O` [Compound 1719], for which the “HepDES19 SI (CC50/EC50)” value in data set [1] amounted to 34.5. The EC50 in data set [1] stood at 1.35 ± 1.03 µM. The results for the “Average Sol (solubility limit)” value in data set [2] (setting [4]), in data set [2] (setting [5]) and in data set [2] (pH 7.4 (DMEM-F12 with 10% FBS)) were 150 µM, more than 200 µM and more than 200 µM, respectively. Besides, the “Sol 1 (solubility limit)” value in data set [2] (pH 5, replicate 1) was 100 µM; in data set [2] (pH 6.5, replicate 1) it was more than 200 µM; in data set [2] (pH 7.4, replicate 1) it was more than 200 µM. Besides, the “Sol 2 (solubility limit)” value in data set [2] (pH 5, replicate 2) was more than 200 µM; in data set [2] (pH 6.5, replicate 2) it was more than 200 µM; in data set [2] (pH 7.4, replicate 2), more than 200 µM. For the same compound, the CC50 with HepDES19 cells came out at 56.9 ± 31.1 µM. In addition, at CYP2D6, the IC50 amounted to 11.2 ± 3.79 µM. The “Avg Papp (PAMPA)” value in data set [3] (FeSSIF pH 5) worked out at 72.6 ×10⁻⁶ cm/s; in data set [3] (pH 7.4), 2.9 ×10⁻⁶ cm/s. Further, the “Interpretation (PAMPA Papp)” value in data set [3] (FeSSIF pH 5) and in data set [3] (pH 7.4) was “H (H: Papp > 1*10-6)” in each case. Also, the “Papp 1 (PAMPA)” value in data set [3] (FeSSIF pH 5, replicate 1) came out at 48.6 ×10⁻⁶ cm/s; in data set [3] (pH 7.4, replicate 1), 2.82 ×10⁻⁶ cm/s. Also, the “Papp 2 (PAMPA)” value in data set [3] (FeSSIF pH 5, replicate 2) is 78.8 ×10⁻⁶ cm/s; in data set [3] (pH 7.4, replicate 2), 2.99 ×10⁻⁶ cm/s. Further, in data set [3] (FeSSIF pH 5, replicate 3), the “Papp 3 (PAMPA)” value amounted to 90.3 ×10⁻⁶ cm/s.
For the compound `CC(=NOCc1ccc(OCc2ccc(C(C)(C)C)cc2)cc1)c1c(C)cc(=O)n(O)c1O` [Compound 1808], the “HepDES19 SI (CC50/EC50)” value in data set [1] is 6.24. In addition, in data set [1], the EC50 is 6 ± 0.17 µM. For the same compound, the “Average Sol (solubility limit)” value in data set [2] (setting [4]) is more than 200 µM; in data set [2] (setting [5]), more than 200 µM; in data set [2] (pH 7.4 (DMEM-F12 with 10% FBS)), 100 µM. The “Sol 1 (solubility limit)” value is recorded as more than 200 µM in data set [2] (pH 5, replicate 1); more than 200 µM in data set [2] (pH 6.5, replicate 1); 100 µM in data set [2] (pH 7.4, replicate 1). Moreover, the “Sol 2 (solubility limit)” value in data set [2] (pH 5, replicate 2) is given as more than 200 µM; in data set [2] (pH 6.5, replicate 2), more than 200 µM; in data set [2] (pH 7.4, replicate 2) it was 100 µM. The CC50 in the data set on HepDES19 cells came out at 38.2 ± 10.2 µM. Moreover, the “Percent inhibition of CYP3A4” value on CYP3A4 is recorded as ~ 42%. The “Clearance (intrinsic clearance, Clint)” value in the data set “Microsome stability” turned out to be 10.1 µL/min/mg. The Half-life in the data set “Microsome stability” is more than 30 min. Besides, the “Interpretation (PAMPA Papp)” value in data set [3] (FeSSIF pH 5) and in data set [3] (pH 7.4) was “H (H: Papp > 1*10-6)” in each case. Besides, the “Papp 1 (PAMPA)” value worked out at 32.2 ×10⁻⁶ cm/s in data set [3] (FeSSIF pH 5, replicate 1) and 3.7 ×10⁻⁶ cm/s in data set [3] (pH 7.4, replicate 1). The “Papp 2 (PAMPA)” value in data set [3] (FeSSIF pH 5, replicate 2) is 9.19 ×10⁻⁶ cm/s; in data set [3] (pH 7.4, replicate 2), 2.6 ×10⁻⁶ cm/s. Besides, the “Papp 3 (PAMPA)” value amounted to 81.4 ×10⁻⁶ cm/s in data set [3] (FeSSIF pH 5, replicate 3) and 2.6 ×10⁻⁶ cm/s in data set [3] (pH 7.4, replicate 3). For the same compound, the “Papp 4 (PAMPA)” value in data set [3] (FeSSIF pH 5, replicate 4) came out at 95.8 ×10⁻⁶ cm/s. In addition, the “Avg Papp (PAMPA)” value in data set [3] (pH 7.4) was determined as 2.97 ×10⁻⁶ cm/s.
As to `Nc1ccn([C@@H]2CS[C@H](CO)O2)c(=O)n1` [Lamivudine, lamivudine, reference compound], the Percent bound with plasma proteins was 9.70 ± 11.3%; in the data set with plasma proteins (listed as lamivudine), 10%.

Usually EC50 stands for the concentration needed to bring the measured effect to its halfway point. The term CC50 denotes the concentration giving 50% cytotoxicity. For orientation: IC50 means the concentration needed to halve the response being measured.
